Source: publication PMC9607159, “High-Resolution Bioassay Profiling with Complemented Sensitivity and Resolution for Pancreatic Lipase Inhibitor Screening” (Molecules, 2022)
Read-outs that look alike come from different tables or passages of the source.

Biological target: T1, pancreatic lipase (PL) (Sus scrofa, UniProt P00591)
T1 construct: gene PNLIP
T1 sequence (P00591 1-450): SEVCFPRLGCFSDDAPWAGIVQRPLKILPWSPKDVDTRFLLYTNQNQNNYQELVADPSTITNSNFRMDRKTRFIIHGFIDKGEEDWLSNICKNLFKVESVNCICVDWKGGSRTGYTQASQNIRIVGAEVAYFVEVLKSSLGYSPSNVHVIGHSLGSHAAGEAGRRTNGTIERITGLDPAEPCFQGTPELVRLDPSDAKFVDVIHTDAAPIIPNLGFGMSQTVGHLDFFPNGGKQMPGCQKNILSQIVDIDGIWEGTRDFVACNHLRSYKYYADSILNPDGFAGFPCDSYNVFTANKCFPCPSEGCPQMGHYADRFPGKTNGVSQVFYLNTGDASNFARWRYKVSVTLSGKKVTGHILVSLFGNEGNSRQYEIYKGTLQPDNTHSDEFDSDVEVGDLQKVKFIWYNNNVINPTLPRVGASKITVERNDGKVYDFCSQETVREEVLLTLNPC
Assay: fluorogenic 4-MUO lipase assay dose-response; also nanofractionation bioassay profiling and ligand fishing with PL magnetic beads
Assay type: biochemical

| Compound | IC50 | IC50 (read-out: IC50) |
| --- | --- | --- |
| O=c1cc(-c2ccc(O)c(O)c2)oc2cc(O)cc(O)c12 [luteolin] | 30.6 µM |  |
| O=C(O[C@@H]1Cc2c(O)cc(O)cc2O[C@@H]1c1cc(O)c(O)c(O)c1)c1cc(O)c(O)c(O)c1 [(-)-Epigallocatechin gallate] |  | 0.97 µM |
